Molecular target: T1, Ba/F3 cell EGFR Exon20 ins NPH (Homo sapiens, UniProt P00533, INS773NPH)
T1 construct: expressed in transfected cells; host or cells: Ba/F3
Experiment: Ba/F3 cell proliferation suppression, EGFR Exon20 ins NPH
Type: cell-based
Details: GI50 class; Ba/F3 cell line with NPH inserted at Exon20 of EGFR; 72 hours
How it was run: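 Seed 3000–5000 cells/well; after 24 h add compound (12 conc., 0.3 nM–50 um final); incubate 72 h; add CellTiter-Glo, 10 min room temperature; read luminescence; GI50 from % growth vs control, triplicate.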

## C=CC(=O)Nc1cc(Nc2cc(N3OCC[C@@H]3c3cccc(Cl)c3Cl)ncn2)c(OC)cc1N1CCN(CCN(C)C)CC1 [compound 566, N-(5-((6-((R)-3-(2,3-dichlorophenyl)isoxazolidine-2-yl)pyrimidine-4-yl)amino)-2-(4-(2-(dimethylamino)ethyl)piperazine-1-yl)-4-methoxyphenyl) acrylamide]
  Ba/F3 (NPH) Activity: B (50 nM ≤ GI50 < 500 nM)

## C=CC(=O)Nc1cc(Nc2cc(N3OCC[C@@H]3c3cccc(Cl)c3F)ncn2)c(OC)cc1N1CCC(N2CCN(C)CC2)CC1 [compound 747, N-(5-((6-((R)-3-(3-chloro-2-fluorophenyl)isoxazolidine-2-yl)pyrimidine-4-yl)amino)-4-methoxy-2-(4-(4-methylpiperazine-1-yl)piperidine-1-yl)phenyl) acrylamide]
  Ba/F3 (NPH) Activity: A (GI50 < 50 nM)

## C=CC(=O)Nc1cc(Nc2cc(N3OCC[C@@H]3c3ccc(Cl)cc3)ncn2)c(OC)cc1N1CCC(N2CCN(C)CC2)CC1 [compound 732, N-(5-((6-((R)-3-(4-chlorophenyl)isoxazolidine-2-yl)pyrimidine-4-yl)amino)-4-methoxy-2-(4-(4-methylpiperazine-1-yl)piperidine-1-yl)phenyl) acrylamide]
  Ba/F3 (NPH) Activity: A (GI50 < 50 nM)

## C=CC(=O)Nc1cc(Nc2cc(N3OCC[C@@H]3c3ccc(Cl)cc3F)ncn2)c(OC)cc1N1CCC(N2CCN(CC)CC2)CC1 [compound 409, N-(5-((6-((R)-3-(4-chloro-2-fluorophenyl)isoxazolidine-2-yl)pyrimidine-4-yl)amino)-2-(4-(4-ethylpiperazine-1-yl)piperidine-1-yl)-4-methoxyphenyl) acrylamide]
  Ba/F3 (NPH) Activity: A (GI50 < 50 nM)

## C=CC(=O)Nc1cc(Nc2cc(N3OCC[C@@H]3c3ccc(Cl)c(Cl)c3)ncn2)c(OC)cc1N1C[C@@H]2C[C@H]1CN2C [compound 684, N-(5-((6-((R)-3-(3,4-dichlorophenyl)isoxazolidine-2-yl)pyrimidine-4-yl)amino)-4-methoxy-2-((1S,4S)-5-methyl-2,5-diazabicyclo[2.2.1]heptane-2-yl)phenyl) acrylamide]
  Ba/F3 (NPH) Activity: A (GI50 < 50 nM)

## C=CC(=O)Nc1cc(Nc2cc(N3OCC[C@@H]3c3cc(F)ccc3F)ncn2)c(OC)cc1N1CCC(N2CCN(C)[C@@H](C)C2)CC1 [compound 850, N-(5-((6-((R)-3-(2,5-difluorophenyl)isoxazolidine-2-yl)pyrimidine-4-yl)amino)-2-(4-((S)-3,4-dimethylpiperazine-1-yl)piperidine-1-yl)-4-methoxyphenyl) acrylamide]
  Ba/F3 (NPH) Activity: A (GI50 < 50 nM)

## C=CC(=O)Nc1cc(Nc2cc(N3OCC[C@@H]3c3cccc(Cl)c3C)ncn2)c(OC)cc1N1CCN(CC)CC1 [compound 585, N-(5-((6-((R)-3-(3-chloro-2-methylphenyl)isoxazolidine-2-yl)pyrimidine-4-yl)amino)-2-(4-ethylpiperazine-1-yl)-4-methoxyphenyl) acrylamide]
  Ba/F3 (NPH) Activity: A (GI50 < 50 nM)

## C=CC(=O)Nc1cc(Nc2cc(N3OCC[C@@H]3c3ccc(F)c(Cl)c3F)ncn2)c(OC)cc1N1CCC(N2CCN(C(C)C)CC2)CC1 [compound 668, N-(5-((6-((R)-3-(3-chloro-2,4-difluorophenyl)isoxazolidine-2-yl)pyrimidine-4-yl)amino)-2-(4-(4-isopropylpiperazine-1-yl)piperidine-1-yl)-4-methoxyphenyl) acrylamide]
  Ba/F3 (NPH) Activity: B (50 nM ≤ GI50 < 500 nM)

## C=CC(=O)Nc1cc(Nc2cc(N3OCC[C@@H]3c3cccc(C#N)c3)ncn2)c(OC)cc1N1CCC(N2CCN(C3CC3)[C@@H](C)C2)CC1 [Example 125, N-(5-((6-((R)-3-(3-cyanophenyl)isoxazolidine-2-yl)pyrimidine-4-yl)amino)-2-(4-((S)-4-cyclopropyl-3-methylpiperazine-1-yl)piperidine-1-yl)-4-methoxyphenyl) acrylamide]
  Ba/F3 (NPH) Activity: A (GI50 < 50 nM)

## C=CC(=O)Nc1cc(Nc2cc(N3OCC[C@@H]3c3cc(F)cc(F)c3)ncn2)c(OC)cc1N1CC[C@@H](N2CCOCC2)C1 [Example 271, N-(5-((6-((R)-3-(3,5-difluorophenyl)isoxazolidine-2-yl)pyrimidine-4-yl)amino)-4-methoxy-2-((R)-3-morpholinopyrolidine-1-yl)phenyl)acrylamide]
  Ba/F3 (NPH) Activity: B (50 nM ≤ GI50 < 500 nM)

## C=CC(=O)Nc1cc(Nc2cc(N3OCC[C@@H]3c3ccc(F)cc3F)ncn2)c(OC)cc1N1CCC(N(C)C)CC1 [compound 384, N-(5-((6-((R)-3-(2,4-difluorophenyl)isoxazolidine-2-yl)pyrimidine-4-yl)amino)-2-(4-(dimethylamino)piperidine-1-yl)-4-methoxyphenyl) acrylamide]
  Ba/F3 (NPH) Activity: A (GI50 < 50 nM)

## C=CC(=O)Nc1cc(Nc2cc(N3OCC[C@@H]3c3cc(F)cc(F)c3)ncn2)c(OC)cc1N1CCC(N2C[C@H](C)N(C3CC3)C[C@H]2C)CC1 [Example 107, N-(2-(4-((2R,5S)-4-cyclopropyl-2,5-dimethylpiperazine-1-yl)piperidine-1-yl)-5-((6-((R)-3-(3,5-difluorophenyl)isoxazolidine-2-yl)pyrimidine-4-yl)amino)-4-methoxyphenyl) acrylamide]
  Ba/F3 (NPH) Activity: A (GI50 < 50 nM)

## C=CC(=O)Nc1cc(Nc2cc(N3OCC[C@@H]3c3cccc(F)c3)ncn2)c(OC)cc1N1CCC(N2CC[C@H](N(C)C)C2)CC1 [compound 744, N-(2-(4-((S)-3-(dimethylamino)pyrolidine-1-yl)piperidine-1-yl)-5-((6-((R)-3-(3-fluorophenyl)isoxazolidine-2-yl)pyrimidine-4-yl)amino)-4-methoxyphenyl) acrylamide]
  Ba/F3 (NPH) Activity: A (GI50 < 50 nM)

## C=CC(=O)Nc1cc(Nc2cc(N3OCC[C@@H]3c3cccc(Cl)c3F)ncn2)c(OC)cc1N1CCC(N2CCN(C3CC3)[C@@H](C)C2)CC1 [Example 179, N-(5-((6-((R)-3-(3-chloro-2-fluorophenyl)isoxazolidine-2-yl)pyrimidine-4-yl)amino)-2-(4-((S)-4-cyclopropyl-3-methylpiperazine-1-yl)piperidine-1-yl)-4-methoxyphenyl) acrylamide]
  Ba/F3 (NPH) Activity: A (GI50 < 50 nM)

## C=CC(=O)Nc1cc(Nc2cc(N3OCC[C@@H]3c3cc(F)cc(F)c3)ncn2)c(OC)cc1N1C[C@H]2C[C@@H]1CO2 [compound 436, N-(2-((1R,4R)-2-oxa-5-azabicyclo[2.2.1]heptane-5-yl)-5-((6-((R)-3-(3,5-difluorophenyl)isoxazolidine-2-yl)pyrimidine-4-yl)amino)-4-methoxyphenyl) acrylamide]
  Ba/F3 (NPH) Activity: B (50 nM ≤ GI50 < 500 nM)

## C=CC(=O)Nc1cc(Nc2cc(N3OCC[C@@H]3c3cccc(F)c3Cl)ncn2)c(OC)cc1N1CCC(N2CCN(C3COC3)CC2)CC1 [Example 201, N-(5-((6-((R)-3-(2-chloro-3-fluorophenyl)isoxazolidine-2-yl)pyrimidine-4-yl)amino)-4-methoxy-2-(4-(4-(oxetane-3-yl)piperazine-1-yl)piperidine-1-yl)phenyl)acrylamide]
  Ba/F3 (NPH) Activity: A (GI50 < 50 nM)

## C=CC(=O)Nc1cc(Nc2cc(N3OCC[C@@H]3c3cccc(Cl)c3F)ncn2)c(OC)cc1N1CCC(N2CCN(C3CC3)C[C@H]2C)CC1 [Example 149, N-(5-((6-((R)-3-(3-chloro-2-fluorophenyl)isoxazolidine-2-yl)pyrimidine-4-yl)amino)-2-(4-((R)-4-cyclopropyl-2-methylpiperazine-1-yl)piperidine-1-yl)-4-methoxyphenyl) acrylamide]
  Ba/F3 (NPH) Activity: A (GI50 < 50 nM)

## C=CC(=O)Nc1cc(Nc2cc(N3OCC[C@@H]3c3cccc(C)c3F)ncn2)c(OC)cc1N1CCC(N2C[C@@H]3C[C@H]2CO3)CC1 [compound 362, N-(2-(4-((1S,4S)-2-oxa-5-azabicyclo[2.2.1]heptane-5-yl)piperidine-1-yl)-5-((6-((R)-3-(2-fluoro-3-methylphenyl)isoxazolidine-2-yl)pyrimidine-4-yl)amino)-4-methoxyphenyl) acrylamide]
  Ba/F3 (NPH) Activity: A (GI50 < 50 nM)

## C=CC(=O)Nc1cc(Nc2cc(N3OCC[C@@H]3c3ccc(Cl)cc3F)ncn2)c(OC)cc1N1CCC(N2CC[C@@H](N(C)C)C2)CC1 [compound 404, N-(5-((6-((R)-3-(4-chloro-2-fluorophenyl)isoxazolidine-2-yl)pyrimidine-4-yl)amino)-2-(4-((R)-3-(dimethylamino)pyrolidine-1-yl)piperidine-1-yl)-4-methoxyphenyl) acrylamide]
  Ba/F3 (NPH) Activity: B (50 nM ≤ GI50 < 500 nM)

## C=CC(=O)Nc1cc(Nc2cc(N3OCC[C@@H]3c3cccc(F)c3Cl)ncn2)c(OC)cc1N1CCC(N2CCN(C3CC3)C[C@H]2C)CC1 [Example 143, N-(5-((6-((R)-3-(2-chloro-3-fluorophenyl)isoxazolidine-2-yl)pyrimidine-4-yl)amino)-2-(4-((R)-4-cyclopropyl-2-methylpiperazine-1-yl)piperidine-1-yl)-4-methoxyphenyl) acrylamide]
  Ba/F3 (NPH) Activity: A (GI50 < 50 nM)

## C=CC(=O)Nc1cc(Nc2cc(N3OCC[C@@H]3c3cc(F)cc(F)c3)ncn2)c(OC)cc1N1CCC(N2CCCN(C3CC3)CC2)CC1 [compound 717, N-(2-(4-(4-cyclopropyl-1,4-diazepane-1-yl)piperidine-1-yl)-5-((6-((R)-3-(3,5-difluorophenyl)isoxazolidine-2-yl)pyrimidine-4-yl)amino)-4-methoxyphenyl) acrylamide]
  Ba/F3 (NPH) Activity: A (GI50 < 50 nM)

## C=CC(=O)Nc1cc(Nc2cc(N3OCC[C@@H]3c3cc(F)cc(Cl)c3)ncn2)c(OC)cc1N1CCC(N2CCO[C@H](C)C2)CC1 [compound 596, N-(5-((6-((R)-3-(3-chloro-5-fluorophenyl)isoxazolidine-2-yl)pyrimidine-4-yl)amino)-4-methoxy-2-(4-((R)-2-methylmorpholino)piperidine-1-yl)phenyl)acrylamide]
  Ba/F3 (NPH) Activity: A (GI50 < 50 nM)
